The test system of data set [1] is hippocampal in vitro model. As to conditions: Salter and Kalia, 2004, Sanna et al., 2000; cited from earlier work.
In data set [2] the test system is kainate-induced SE in C57BL/6J mice. Briefly: Saracatinib pretreatment 4 h before kainate-induced status epilepticus (behavioral seizure scoring, modified Racine scale). As to conditions: for mortality during SE / latency to the onset of first CS: saracatinib 25 mg/kg oral 4 h prior to SHD kainate 25 mg/kg i.p.; for mortality during SE: about 20% in vehicle group. The data set is classed as in vivo. Here is the method: We tested Fyn knockout mice (fyn^−/−), bred on C57BL/6J hybrid background mouse (fyn^+/+), and in wildtype C57BL/6J mice treated with the fyn kinase inhibitor, Saracatinib ([…], 25 mg/kg, oral, single dose) 4 h prior to the induction of SE with KA (5 mg/kg, i.p. at 30 min intervals or as a single high dose of 25 mg/kg). Two hours after the established SE, the behavioral SE was terminated with diazepam (10 mg/kg, i.p.). The animals were euthanized with pentobarbitone (100 mg/kg, i.p.) at 4 h, 24 h and 7d (for IHC & WB) and 4 weeks (video-EEG group) post-SE. The brain, serum, and cerebrospinal fluid (CSF) were collected for various analyses. […] We examined the time-dependent activation of fyn in microglial cells and initiation of neuro-inflammatory and neurodegenerative mechanisms in the hippocampus at 4 h, 24 h and 7 day time points post-SE. We also performed electroencephalographic (EEG) analysis to determine the spike rate and SRS frequency.
Thirty C57BL/6J mice were used for the saracatinib experiment. In this experiment, 15 mice were treated with saracatinib (25 mg/kg, oral gavage as a single dose) at 4 h prior to a single high dose (SHD) of kainate (25 mg/kg, i. p), while the remaining 15 mice were given the vehicle [0.5% hydroxypropyl methylcellulose in 0.1% tween 80] 4 h prior to kainate.
All animals administered with kainate were subjected to video recording. The seizures were staged and the SE was scored by direct observation of animals during the 2 h SE and exact duration of each stage of seizure was calculated. The video recordings were used for secondary analysis and for independent verification of seizures by two different personnel who were not involved in direct scoring during the experiments. The personnel who did the behavioral analysis were blind to the experimental groups. The behavioral seizures were scored based on modified Racine scale from stage 1 to 5 as described previously (Beamer et al., 2012; Puttachary et al., 2015b; Racine, 1972; Tse et al., 2014). Briefly, the staging was as follows: stage 1, absence-like immobility; stage-2, hunching with facial or manual automatisms evident from brisk movement of vibrissae and repeated grooming of the face; stage 3, rearing with forelimb clonus and facial or manual automatisms; stage 4, repeated rearing with continuous forelimb clonus and falling; and stage-5, generalized tonic clonic convulsions with lateral recumbence or jumping and/or wild running followed by generalized convulsions. Stage 1 and stage 2 were categorized as non-convulsive seizures (NCS) and stage ≥3 as convulsive seizures (CS) (Beamer et al., 2012; Puttachary et al., 2015b; Tse et al., 2014). The latency to the onset of CS and the duration of seizures were analyzed for each animal within a group as described previously (Puttachary et al., 2015b; Tse et al., 2014). The duration of CS is the total time spent by an animal in stage ≥3 during the 2 h of established SE until the diazepam was administered. Since a very few animals reached stage 5 in the saracatinib pretreated group and in the fyn^−/− mice, we considered stage ≥3 as the starting point for 2 h established SE. The data were analyzed and the severity of seizures, duration of CS, latency to CS onset, and mortality rate were compared between the groups.
In all kainate-treated animals, the behavior seizures were terminated with diazepam (10 mg/kg, i.p.) at 2 h after the first onset of convulsive seizure. The 2 h duration between the onset of convulsive seizure and the diazepam treatment was considered as 2 h established SE. During this period, all wildtype control mice had continuous convulsive seizures for >30 min. All kainate-treated animals received 1 mL of Ringer's lactate solution (s.c.) twice a day for three days to enable them to recover from dehydration and the lost bodyweight due to SE.

A short description of data set [3]: LC-MS of saracatinib in hippocampal tissue (blood brain barrier crossing). The data set is classed as in vivo, C57BL/6J mice. Here is the method:
For the LC-MS the optimum dose of saracatinib for our experiment was based on the published literature (Green et al., 2009; Hannon et al., 2010; Liu et al., 2012; Yang et al., 2010). […] The mice hippocampal tissues were homogenized in ˜0.2 mL 1:1 methanol:water using bullet blender. An additional 125 μL HPLC grade water was added to the homogenized samples. This was followed by three similar successive extractions with 375 μL 3:1 acetonitrile:water. The homogenate was sonicated for 10 min in a sonication water bath. The sample was pelleted by centrifugation at 13,000 g for 7 min and the supernatant was collected after each extraction and the samples were pooled. […]
The LC-MS analysis for saracatinib was conducted using an Agilent Technologies 1290 Infinity Binary Pump UHPLC system coupled to an Agilent Technologies 6540 UHD Accurate-Mass Q-TOF mass spectrometer in high resolution mode ([…]) and scanning m/z 100-1700. […] Saracatinib detection is represented by extracted ion chromatogram (EIC) using a 10 ppm extraction window and was analyzed (FIG. 1E) using Agilent Mass Hunter Qualitative Analysis B.07.00 software. The X-axis on the EIC represents retention time and the Y-axis represents the abundance of ions detected. Saracatinib concentrations were observed as the area of the EIC peaks and was calculated based on the linear curve of the observed peak areas of standards. […]

Another data set has as its system rat kainate model of TLE. Briefly: Saracatinib post-treatment in the rat kainate model of TLE, 28 days continuous video-EEG. The data set is classed as in vivo, Sprague Dawley rats. The conditions noted are these: for rats that did not develop epilepsy (of seven treated): 25 mg/kg oral from 2 h post-diazepam, twice daily 3 days then daily 4 days. Here is the method:
Rats were used in the following example. The rats were treated as per the materials and methods of Examples 2-10 except for the following. Fourteen rats were used and implanted with telemetry device 10 days prior to the induction of SE, with RLD of kainate, as described previously (Puttachary et al., 2016b). The telemetry device used was CTA-F40 PhysioTel™ telemetry device (Data Science International, Minneapolis, USA) for video-EEG recording.
Disabling the Fyn kinase function, either by pretreatment with saracatinib or fyn KO, prior to SE induction impacts the initial severity of SE and thus compromises the epileptogenic events. Therefore, we tested the effect of Fyn kinase inhibition with the saracatinib on epileptogenesis after the induction of SE in the rat kainate model of TLE. To mimic human TLE from translational view point, the rat kainate model is more suitable in terms of progressive nature of the disease since the frequency of spontaneous CS consistently increases over time in rats in contrast to the mouse kainate model (Puttachary et al., 2015b and 2016b). Therefore, we tested the saracatinib in the rat kainate model after terminating the behavioral SE with diazepam. The saracatinib (25 mg/kg, oral) was administered at 2 h post-diazepam and repeated twice daily for first three days followed by a single dose daily for the next four days during the first week of post-SE period. The treatment regimen was chosen based on increase in Fyn and PKCδ levels during the first week of post-SE in the mouse model.

Data set [4] concerns rat kainate model of epilepsy. The data set is described as follows: Saracatinib post-treatment in the rat kainate model of epilepsy, 4 months video-EEG study. The data set is classed as in vivo, rats. As to conditions: four months monitoring. On the procedure: Fifteen rats (n=8 for control and 7 for SAR) were studied over the course of four months. Treatments and methods used in Example 12 were followed for this Example except for the extended time and the SAR/vehicle was administered 2 h after stopping the seizures (SE) with diazepam. The SAR was given at 25 mg/kg, oral twice daily for three days followed by daily for next four days. The drug was NOT administered after 7-day time point.

Setting [5] is: saracatinib 25 mg/kg oral single dose 4 h prior to kainate, vs vehicle, 2 h established SE.

For `CC(C)(C)n1nc(-c2ccc(Cl)cc2)c2c(N)ncnc21` [PP2], the “frequency of epileptiform discharges” value in data set [1] is given as “reduces frequency of epileptiform discharges”.
Take `CN1CCN(CCOc2cc(OC3CCOCC3)c3c(Nc4c(Cl)ccc5c4OCO5)ncnc3c2)CC1` [saracatinib, N-(5-chloro-1,3-benzodioxol-4-yl)-7-[2-(4-methylpiperazin-1-yl)ethoxy]-5-(oxan-4-yloxy)quinazolin-4-amine]: in data set [2] (SHD kainate 25 mg/kg, 67% in vehicle group), the “mice that reached stage 5 seizure” value was found to be 7%. Besides, the “mortality during SE” value was “no mortality” in data set [2]; “reducing seizure severity and morality rate” in data set [2] (listed as SAR). Besides, the “latency to the onset of first CS” value in data set [2] (vs vehicle) is “increased latency”; in data set [2] (vs vehicle, listed as SAR), “increasing the latency of seizure onset”. Besides, in data set [2] (setting [5]), the “duration of convulsive seizures (CS)” value is “significant reduction”. The seizure severity entry is recorded as “significant reduction” in data set [2] (setting [5]) and “reducing seizure severity” in data set [2] (saracatinib 25 mg/kg oral single dose 4 h prior to kainate, vs vehicle, 2 h established SE, listed as SAR). For the same molecule, the “crossing of the blood brain barrier (BBB)” value in data set [3] (LC-MS of hippocampus after 25 mg/kg oral) is on record as “crossed the BBB”. The “persistence in hippocampus, 8 h compared to 28 h” value in data set [3] (LC-MS, FIG. 1F) is “persisted in the hippocampus at higher levels at 8 h post-SE when compared to 28 h post-administration”. In addition, the “rats that did not develop epilepsy (of seven treated)” value in the data set with rat kainate model of TLE (28 d post-SE) was “four out of seven”; in the data set on rat kainate model of TLE (28 d post-SE, listed as SAR) it was “four”. Also, in the data set with rat kainate model of TLE (28 d post-SE, video-EEG), the “epileptiform spike counts / spiking frequency vs vehicle” value is recorded as “significantly reduced”. Moreover, the “number of spontaneous CS vs vehicle” value with rat kainate model of TLE (28 d post-SE, video-EEG) is recorded as “significantly reduced”; in the data set with rat kainate model of TLE (28 d post-SE, video-EEG, listed as SAR) it was “significant reduction”. Further, the “initial SE severity vs vehicle group” value with rat kainate model of TLE (before treatment (post-SE dosing)) is reported as “no significant difference”. The “rats not responding to treatment” value in the data set with rat kainate model of TLE (of seven treated rats) is reported as “one rat did not respond”. Besides, in the data set with rat kainate model of TLE (two of seven treated rats, >24 episodes in vehicle group), the “number of spontaneous CS in a month (two rats)” value is under 10. The “rats in which development of epilepsy was completely prevented (of seven)” value in data set [4] (25 mg/kg oral twice daily 3 days then daily 4 days) is “four out of seven”. In data set [4], the animals not responding entry is recorded as “one animal did not respond”. For the same molecule, the “seizures in the other animals” value in data set [4] is reported as “significantly reduced seizures”.

Values taken from US11000524B2, “Tyrosine kinase inhibition as a treatment for epilepsy” (Iowa State University Research Foundation, Inc., priority 2016, dated 2021).
